# Results: US5250541A, “Kynurenic acid derivatives, their preparation and pharmaceutical compositions containing them” (Fidia S.p.A., priority 1989, dated 1993)
# Where two headings read alike, the source gives them in different places.
# How the values were obtained:
# [1] = system: NMDA receptors present on guinea-pig ileum; conditions: guinea-pig myenteric plexus; cited from earlier work
# [2] = target: T1, glycine recognition site of the NMDA receptor-ion channel complex (cortical membranes) (Homo sapiens, UniProt Q05586); experiment: displacement of labelled glycine from cortical membranes; type: binding
# T1 construct: from tissue
# Source text: (§1) 1) they displace labelled glycine from cortical membranes with an EC50 value 5-10 times lower than that of kynurenate;
# [3] = target: T2, glycine recognition site of the NMDA receptor-ion channel complex (cortical membranes), UniProt Q05586); experiment: as above; type: binding; conditions: cortical membranes; read-out: concentration displacing 50% of labelled glycine from its binding sites
# T2 construct: from tissue
# Source text: as §1
# [4] = system: NMDA receptors present on guinea-pig ileum; experiment: antagonism of glutamate or NMDA actions on guinea-pig ileum; type: cell-based; conditions: guinea-pig terminal ileum; read-out: concentration antagonising 50% of glutamate or NMDA actions
# Source text: 2) they antagonise in […] way the glutamate effect on NMDA receptors present on guinea-pig ileum: on this test their effect is competitively antagonized by glycine.
# [5] = system: mouse cerebral cortex slices; experiment: antagonism of glutamate or NMDA actions on mouse cerebral cortex slices; type: cell-based; conditions: brain slices, read-out: concentration antagonising 50% of glutamate or NMDA actions
# Source text: (§2) The compounds I were also active in mouse cerebral cortex slices according to Proc. Natl. Acad. Sci. USA 85; 6547-6550--1988, in the prevention of glutamate toxicity in cultured cells and in the prevention of NMDA induced convulsions in mice.
# [6] = system: cultured cells; experiment: prevention of glutamate toxicity in cultured cells; type: cell-based
# Source text: as §2
smiles,measurement,setting,value
O=C(O)c1cc(=O)c2ccccc2[nH]1 [kynurenic acid],antagonistic activity of the glutamate effect,[1],antagonistic activity of the glutamate effect
"O=C(O)c1cc(S)c2ccccc2n1 [thiokynurenic acid, 4-thio-quinoline-2-carboxylic (thiokynurenic) acid]",mode of action at the glycine receptors,[2],competitive antagonists of the glycine receptors
same,mode of action at the glycine receptors,[2]; listed as 4thiokynurenic acid,competitive antagonists of a particular kind of glycine receptors
"O=C(O)c1cc(S)c2ccc(Cl)cc2n1 [7-chloro-4-thiokynurenic acid, 7-chloro-4-thio-quinoline-2-carboxylic acid]",IC50,[3],1 µM
same,IC50,[4],5 µM
same,IC50,[5],5 µM
same,concentration antagonising the glutamate neurotoxicity,[6],0.08 µM
